Measurements published in paper PMC5753150 (Beilstein Journal of Organic Chemistry, 2017).
“Also recorded” adds a separate entry of the source. *1 amine or outer side, *2 acyl side, *3 side chain or, on linkers, in order; H or OH if unused. Where a SMILES comes first, the peptide text is derived from it. [ ]: non-standard residue; d: D form. Leu(5,5,5,5',5',5'-F6) = N[C@@H](CC(C(F)(F)F)C(F)(F)F)C(=O)O; X1 = C[C@@H](CC(F)(F)F)[C@H](N[*:1])C(=O)[*:2]; 2Abz = Nc1ccccc1C(=O)O

Tests used:
pepsin (EC 3.4.23.1) [1] = target: pepsin (EC 3.4.23.1) (Sus scrofa, UniProt P00791); test: in vitro
Procedure: (§1) The course of proteolytic digestion was characterized by an analytical HPLC-assay with fluorescence detection. For quantification of substrate degradation, integration of the corresponding HPLC peak was conducted. Cleavage products were identified by ESI–ToF mass spectrometry (see Supporting Information File 1, Tables S4–S7).
(§2) All peptides employed in the degradation studies were used as the TFA salts obtained after lyophilization. Stock solutions of α-chymotrypsin (from bovine pancreas, EC 3.4.21.1, ≥40.0 units/mg of protein, Sigma Aldrich, St. Louis, MO, USA), and pepsin (from porcine stomach mucosa, EC 3.4.23.1, ≥250 units/mg of protein, Sigma Aldrich, St. Louis, MO, USA) were prepared at concentrations of 1 mg/mL in phosphate buffer (10 mM, pH 7.4), or in acetate buffer (10 mM, pH 4.0), respectively. For proteinase K (from tritirachium album, EC 3.4.21.64, ≥30 units/mg of protein, Sigma Aldrich, St. Louis, MO, USA) and elastase (from porcine pancreas, EC 3.4.21.36, 6.2 units/mg of protein, Sigma Aldrich, St. Louis, MO, USA) stock solutions were prepared also at concentrations of 1 mg/mL in tris/HCl (50 mM) + CaCl2 (10 mM) buffer (pH 7.5), or in tris/HCl buffer (100 mM, pH 8.4), respectively. Peptides (0.002 mmol) were prepared as stocks in DMSO (100 µL) and incubated with the respective enzyme at 30 °C (for α-chymotrypsin and pepsin) or 37 °C (for proteinase K and elastase) with shaking at 300 rpm in a thermomixer over a period of 24 h. The reaction mixture consisted of DMSO (15 µL), corresponding buffer (25 µL), peptide solution (5 µL) and the corresponding enzyme solution (5 µL). […] Aliquots of 5 µL were taken at fixed time points (0, 15, 30, 60, 90, 120 min as well as 3 h and 24 h) and either quenched with ACN containing 0.1% (v/v) TFA (95 µL), in the case of α-chymotrypsin, proteinase K and elastase, or 2% aqueous ammonia (95 µL), in the case of pepsin. All samples were subjected to analytical HPLC on a LaChrom-ELITE-HPLC-System equipped with a fluorescence detector (VWR International Hitachi, Darmstadt, Germany). A monolithic reversed-phase C8 Chromolith® Performance HPLC column (100 × 4.6 mm, Merck KGaA, Darmstadt, Germany) was used to resolve and quantify the products of digestion. The used system and gradients are described in detail in Supporting Information File 1. Detection based on the Abz label was carried out using a fluorescence detector with λex = 320 nm and λem = 420 nm. In all cases, the peaks corresponding to the starting materials (full-length peptides) or the N-terminal fragments (products) were integrated and used to determine the velocity of the reaction (see Supporting Information File 1). […] Each fragment cleaved from the full-length peptide was identified by ESI–ToF mass analysis on an Agilent 6220 ESI–ToF–MS spectrometer (Agilent Technologies, Santa Clara, CA, USA, see Supporting Information File 1). All experiments were performed in triplicate.
(§3) 2130) with solvent degasser, an autosampler (L-2200) with a 100 µL sample loop, a diode array flow detector (L-2455), a fluorescence detector (L-2485) and a high pressure gradient mixer. As eluents water and ACN, both containing 0.1% (v/v) TFA were used, and a flow rate of 3 mL/min was applied. The used linear gradients are […]
(§4) For the non-fluorinated peptides method A was used to follow the digestion process, and for the fluorinated peptides method B was applied. For […]
(§5) The obtained data were analyzed with EZChrom Elite software
(§6) (version 3.3.2, Agilent Technologies, Santa Clara, CA, USA).

elastase (EC 3.4.21.36) [2] = target: elastase (EC 3.4.21.36) (Sus scrofa, UniProt P00772); settings: elastase, 100 mM Tris/HCl buffer pH 8.4, 37 °C; for Proteolytic stability compared to control peptide FA after 24 h: FL-RP-HPLC; for Gain in stability upon fluorination compared to the non-fluorinated (Leu or Ile) analogue, 24 h: after 24 h
Procedure: as §1, §2, §3, §4, §5, §6

[3] = target: T1, α-chymotrypsin (EC 3.4.21.1) (Bos taurus, UniProt P00766); test: Protease digestion assay with α-chymotrypsin (FL-RP-HPLC); assay type: in vitro ADME, bovine
T1 construct: purchased Sigma Aldrich; host or cells: bovine pancreas
Procedure: The FA peptide was used as a reference. […] All experiments were performed in triplicate.
The used linear gradients are
chromatograms where an insufficient baseline separation was observed,
(proteinase K)]. The obtained data were analyzed with EZChrom Elite software
Method Time [min] Water + 0.1% (v/v) TFA [%] ACN + 0.1% (v/v) TFA [%]

elastase (EC 3.4.21.36) [4] = test: elastase in 100 mM Tris/HCl buffer, pH 8.4; settings: porcine pancreas, 37 °C, up to 24 h
pepsin (EC 3.4.23.1) [5] = test: pepsin in 10 mM acetate buffer, pH 4.0; settings: porcine stomach mucosa, 30 °C, up to 24 h
[6] = system: proteinase K (EC 3.4.21.64); test: proteinase K in 50 mM Tris/HCl buffer, containing 10 mM CaCl2 pH 7.5; settings: tritirachium album, 37 °C, up to 24 h
[7] = system: α-chymotrypsin (EC 3.4.21.1); test: α-chymotrypsin in 10 mM phosphate buffer, pH 7.4; settings: bovine pancreas, 30 °C, up to 24 h

Sequence of elastase (EC 3.4.21.36) (Sus scrofa, UniProt P00772) (P00772 27-266): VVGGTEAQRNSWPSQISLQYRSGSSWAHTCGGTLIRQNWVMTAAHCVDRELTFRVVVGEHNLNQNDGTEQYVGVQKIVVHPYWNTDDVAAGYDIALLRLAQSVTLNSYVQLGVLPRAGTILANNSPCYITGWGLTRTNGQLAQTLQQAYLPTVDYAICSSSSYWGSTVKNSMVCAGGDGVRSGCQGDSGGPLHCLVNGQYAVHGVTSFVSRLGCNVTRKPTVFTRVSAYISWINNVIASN
Sequence of pepsin (EC 3.4.23.1) (Sus scrofa, UniProt P00791) (P00791 60-385): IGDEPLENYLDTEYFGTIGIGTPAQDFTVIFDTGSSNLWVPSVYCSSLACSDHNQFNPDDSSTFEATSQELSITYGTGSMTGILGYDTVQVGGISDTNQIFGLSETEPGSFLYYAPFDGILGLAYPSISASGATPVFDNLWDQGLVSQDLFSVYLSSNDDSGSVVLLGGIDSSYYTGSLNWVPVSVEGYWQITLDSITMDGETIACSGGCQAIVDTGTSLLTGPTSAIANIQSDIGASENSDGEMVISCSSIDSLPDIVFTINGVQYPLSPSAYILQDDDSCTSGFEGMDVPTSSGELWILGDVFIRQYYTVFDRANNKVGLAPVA

Compound	cleaved bond (elastase (EC 3.4.21.36) [4])	not cleaved (elastase (EC 3.4.21.36) [4])	cleaved bond (pepsin (EC 3.4.23.1) [5])	cleaved bond [6]	cleaved bond [7]	other results
C[C@H](NC(=O)[C@H](C)NC(=O)[C@H](C)NC(=O)[C@H](Cc1ccccc1)NC(=O)[C@H](C)NC(=O)[C@H](C)NC(=O)[C@H](CCCCN)NC(=O)c1ccccc1N)C(=O)N[C@@H](C)C(=O)N[C@@H](CCCCN)C(=O)O [FA] (H-[2Abz]KAAFAAAAK-OH)						Percentage of substrate remaining after incubation for 24 h (pepsin (EC 3.4.23.1) [1]; pepsin (porcine stomach mucosa), 10 mM acetate buffer pH 4.0 with DMSO, 30 °C, 24 h, FL-RP-HPLC peak integration (Abz, λex 320/λem 420 nm), average of three independent measurements): almost completely degraded
C[C@H](NC(=O)[C@H](C)NC(=O)[C@H](CC(C(F)(F)F)C(F)(F)F)NC(=O)[C@H](Cc1ccccc1)NC(=O)[C@H](C)NC(=O)[C@H](C)NC(=O)[C@H](CCCCN)NC(=O)c1ccccc1N)C(=O)N[C@@H](C)C(=O)N[C@@H](CCCCN)C(=O)O [P1’-HfLeuFA] (H-[2Abz]KAAF[Leu(5,5,5,5',5',5'-F6)]AAAK-OH)						Proteolytic stability compared to control peptide FA after 120 min (pepsin (EC 3.4.23.1) [1]; pepsin, 10 mM acetate buffer pH 4.0, 30 °C, 120 min, FL-RP-HPLC): same persistence; Proteolytic stability compared to control peptide FA after 24 h (pepsin (EC 3.4.23.1) [1]; pepsin, 10 mM acetate buffer pH 4.0, 30 °C, 24 h, FL-RP-HPLC): somewhat more stable than the control FA; Stabilization upon fluorination compared to the non-fluorinated analogue, 120 min (pepsin (EC 3.4.23.1) [1]; pepsin, 10 mM acetate buffer pH 4.0, 30 °C, after 120 min): about 20%; Destabilization compared to the hydrocarbon analogue, 24 h (pepsin (EC 3.4.23.1) [1]; pepsin, 10 mM acetate buffer pH 4.0, 30 °C, after 24 h): 17%; Proteolytic stability compared to control peptide FA after 24 h (elastase (EC 3.4.21.36) [2]): more stable than the control peptide FA; Gain in stability upon fluorination compared to the non-fluorinated (Leu or Ile) analogue, 24 h (elastase (EC 3.4.21.36) [2]): 85%; Gain in proteolytic stability upon fluorination compared to the non-fluorinated (Leu or Ile) analogue ([3]; α-chymotrypsin, 10 mM phosphate buffer pH 7.4, 30 °C, after 24 h, FL-RP-HPLC): better substrate than the non-fluorinated Leu peptide
CC[C@H](C)[C@H](NC(=O)[C@H](Cc1ccccc1)NC(=O)[C@H](C)NC(=O)[C@H](C)NC(=O)[C@H](CCCCN)NC(=O)c1ccccc1N)C(=O)N[C@@H](C)C(=O)N[C@@H](C)C(=O)N[C@@H](C)C(=O)N[C@@H](CCCCN)C(=O)O [P1’-IleFA] (H-[2Abz]KAAFIAAAK-OH)						Proteolytic stability compared to control peptide FA after 24 h (elastase (EC 3.4.21.36) [2]): more stable than the control peptide FA
C[C@H](NC(=O)[C@H](C)NC(=O)[C@@H](NC(=O)[C@H](Cc1ccccc1)NC(=O)[C@H](C)NC(=O)[C@H](C)NC(=O)[C@H](CCCCN)NC(=O)c1ccccc1N)[C@@H](C)CC(F)(F)F)C(=O)N[C@@H](C)C(=O)N[C@@H](CCCCN)C(=O)O [P1’-TfIleFA] (H-[2Abz]KAAF[X1]AAAK-OH)						Proteolytic stability compared to control peptide FA after 24 h (elastase (EC 3.4.21.36) [2]): comparably stable; Gain in stability upon fluorination compared to the non-fluorinated (Leu or Ile) analogue, 24 h (elastase (EC 3.4.21.36) [2]): accelerates enzymatic degradation
CC(C)C[C@H](NC(=O)[C@H](C)NC(=O)[C@H](CCCCN)NC(=O)c1ccccc1N)C(=O)N[C@@H](Cc1ccccc1)C(=O)N[C@@H](C)C(=O)N[C@@H](C)C(=O)N[C@@H](C)C(=O)N[C@@H](C)C(=O)N[C@@H](CCCCN)C(=O)O [P2-LeuFA] (H-[2Abz]KALFAAAAK-OH)						Percentage of substrate remaining after incubation for 24 h ([3]; α-chymotrypsin (bovine pancreas), 10 mM phosphate buffer pH 7.4 with DMSO, 30 °C, 24 h, FL-RP-HPLC peak integration (Abz, λex 320/λem 420 nm), average of three independent measurements): complete proteolysis
Abz-KAAFAAAAK	A-A	no fragments with Phe in the P1 position observed	F-A	A-A	F-A, major	
Abz-KAAFAHfLeuAAK	K-A and A-A and A-F and A-HfLeu	no fragments with Phe in the P1 position observed	A-HfLeu	A-HfLeu; also recorded: HfLeu-A	F-A, major	not cleaved (pepsin (EC 3.4.23.1) [5]): not hydrolyzed at the designed cleavage site
Abz-KAAFAIleAAK	A-F and Ile-A and A-A and A-K	no fragments with Phe in the P1 position observed	F-A	A-F and A-Ile	F-A, major	
Abz-KAAFATfIleAAK	A-F and TfIle-A	no fragments with Phe in the P1 position observed	F-A and A-TfIle and A-F	A-F	F-A, major	
Abz-KAAFHfLeuAAAK	K-A and A-A	no fragments with Phe in the P1 position observed	F-HfLeu; also recorded: HfLeu-Ala	A-F	F-HfLeu, major; also recorded: HfLeu-A	
Abz-KAAFIleAAAK	A-F and A-A	no fragments with Phe in the P1 position observed		A-F and A-A	F-Ile, major	
Abz-KAAFLeuAAAK	K-A and A-A and A-F and A-K	no fragments with Phe in the P1 position observed	F-Leu; also recorded: Leu-Ala	A-F and A-A	F-Leu, major; also recorded: Leu-A	
Abz-KAAFTfIleAAAK	A-A	no fragments with Phe in the P1 position observed	F-TfIle	A-F and A-A	F-TfIle, major	
Abz-KAHfLeuFAAAAK	HfLeu-F and A-A	no fragments with Phe in the P1 position observed	F-A and HfLeu-F	HfLeu-F and A-A		not cleaved [7]: not digested at all
Abz-KAIleFAAAAK	Ile-F and A-A and A-K	no fragments with Phe in the P1 position observed	F-A	F-A	F-A, major	
Abz-KALeuFAAAAK	A-Leu and A-A and A-K		F-A	Leu-F and A-A	F-A, major	
Abz-KATfIleFAAAAK	TfIle-F and A-A	no fragments with Phe in the P1 position observed		F-A and A-A		not cleaved (pepsin (EC 3.4.23.1) [5]): 100% after 24 h; not cleaved [7]: not digested at all
